We go through ten compounds from patent publication US20230118795A1, “ARYL OR HETEROARYL PYRIDONE OR PYRIMIDINE DERIVATIVE, PREPARATION METHOD AND USE THEREOF” (SUZHOU ZELGEN BIOPHARMACEUTICALS CO., LTD., priority 2020, published 2023).

Bounds are passed on as bounds.

The subject of the assay is NCI-H358 (KRAS^G12C mutation) cell. Description: Cell assay of antiproliferative activity against NCI-H358 cell (Celltiter-Glo, 5 days). Conditions: Homo sapiens, NCI-H358, 120 h, 5 days incubation. It is filed as cell-based. As to the method: Cell Assay of Antiproliferative Activity of Compounds Against NCI-H358 (KRAS^G12C Mutation) Cell.
40 μL phosphate buffer was added to the outer wells of the 384 microplate, and 40 μL cell suspension to be tested was added to the other wells. Then the microplate was incubated in a carbon dioxide incubator overnight.
The compounds to be tested were gradiently diluted, each compound was performed 10 concentration gradients (diluted from 50 μM to 0.003 μM) and added 100 nL to the corresponding wells in the microplate. After addition, 40 μl of phosphate buffer was added to each well in rows A and P and columns 1 and 24, and then the microplate was incubated in a carbon dioxide incubator for 5 days.
20 μL of Promega Celltiter-Glo reagent was added to each well of the microplate, and then the luminescence signal was stabilized by oscillating at room temperature for 10 min. Then PekinElmer Envision multi-label analyzer was used to read.
Finally, GraphPad Prism software was used to calculate the IC50 value of the compound and the fitting curve was drawn.
Anti-proliferative activity of the compounds of the present invention against NCI-H358 (KRAS^G12C mutation) cell was shown in Table 1.
Usually IC50 stands for the concentration at which inhibition is half-maximal. Take `C=CC(=O)N1CCN(c2nc(=O)n(-c3cccnc3S(C)(=O)=O)c3nc(-c4c(O)cccc4F)c(F)cc23)CC1CC#N` (stereo not shown) [Example 58, 2-(1-acryloyl-4-(6-fluoro-7-(2-fluoro-6-hydroxyphenyl)-1-(2-(methylsulfonyl)pyridin-3-yl)-2-oxo-1,2-dihydropyridino [2,3-d]pyrimidin-4-yl)piperazin-2-yl) acetonitrile]: half-maximal inhibition (IC50) required 10000 nM.
Regarding `C=CC(=O)N1CCN(c2nc(=O)n(-c3c(C)cccc3S(C)(=O)=O)c3nc(-c4c(F)cccc4Cl)c(F)cc23)[C@@H](C)C1` [Example 59, 4-((S)-4-acryloyl-2-methylpiperazin-1-yl)-7-(2-chloro-6-fluorophenyl)-6-fluoro-1-(2-methyl-6-(methylsulfonyl)phenyl) pyridino [2,3-d] pyrimidin-2(1H)-one], the IC50 stood at 200 nM.
The compound `C=CC(=O)N1CCN(c2nc(=O)n(-c3ccccc3S(C)(=O)=O)c3nc(-c4c(O)cccc4F)c(F)cc23)C(CC#N)C1` (stereo not shown) [Example 60, 2-(4-acryloyl-1-(6-fluoro-7-(2-fluoro-6-hydroxyphenyl)-1-(2-(methylsulfonyl)phenyl)-2-oxo-1,2-dihydropyridino [2,3-d]pyrimidin-4-yl)piperazin-2-yl) acetonitrile] yielded an IC50 greater than 10000 nM.
The compound `C=CC(=O)N1CCN(c2nc(=O)n(-c3ccccc3S(C)(=O)=O)c3nc(-c4c(O)cccc4F)c(F)cc23)C(CC(N)=O)C1` (stereo not shown) [Example 61, 2-(4-acryloyl-1-(6-fluoro-7-(2-fluoro-6-hydroxyphenyl)-1-(2-(methylsulfonyl)phenyl)-2-oxo-1,2-dihydropyridino [2,3-d]pyrimidin-4-yl)piperazin-2-yl) acetamide] showed an IC50 greater than 10000 nM.
Compound `C=CC(=O)N1C[C@H](C)N(c2nc(=O)n(-c3c(C4CCC4)cccc3S(C)(=O)=O)c3nc(-c4c(O)cccc4F)c(F)cc23)C[C@H]1C` [Example 63A] yielded a half-maximal inhibitory concentration (IC50) of 370 nM.
`C=CC(=O)N1CCN(c2nc(=O)n(-c3c(C(C)C)cccc3S(C)(=O)=O)c3nc(-c4cc(C#N)ccc4Cl)c(F)cc23)[C@@H](C)C1` [Example 64, (S)-3-(4-(4-acryloyl-2-methylpiperazin-1-yl)-6-fluoro-1-(2-isopropyl-6-(methylsulfonyl)phenyl)-2-oxo-1,2-dihydropyridino[2,3-d]pyrimidin-7-yl)-4-chlorobenzonitrile] had a half-maximal inhibitory concentration (IC50) of 120 nM.
With `C=CC(=O)N1CCN(c2nc(=O)n(-c3c(C(C)C)cccc3S(C)(=O)=O)c3nc(-c4cccc(C#N)c4Cl)c(F)cc23)[C@@H](C)C1` [Example 65, (S)-3-(4-(4-acryloyl-2-methylpiperazin-1-yl)-6-fluoro-1-(2-isopropyl-6-(methylsulfonyl)phenyl)-2-oxo-1,2-dihydropyridino[2,3-d]pyrimidin-7-yl)-2-chlorobenzonitrile], the half-inhibitory concentration (IC50) was greater than 10000 nM.
Turning to `C=CC(=O)N1CCN(c2nc(=O)n(-c3c(C(C)C)cccc3S(C)(=O)=O)c3nc(-c4ccc(C#N)cc4Cl)c(F)cc23)[C@@H](C)C1` [Example 66, (S)-4-(4-(4-acryloyl-2-methylpiperazin-1-yl)-6-fluoro-1-(2-isopropyl-6-(methylsulfonyl)phenyl)-2-oxo-1,2-dihydropyridino [2,3-d]pyrimidin-7-yl)-3-chlorobenzonitrile], the concentration for half-maximal inhibition (IC50) is greater than 10000 nM.
Compound `C=CC(=O)N1CCN(c2nc(=O)n(-c3c(C(C)C)cccc3S(C)(=O)=O)c3nc(-c4c(Cl)cccc4C#N)c(F)cc23)[C@@H](C)C1` [Example 67] returned an IC50 greater than 10000 nM.
Consider `C=CC(=O)N1CCN(c2nc(=O)n(-c3c(C(C)C)cccc3S(C)(=O)=O)c3nc(-c4ccnn4C)c(F)cc23)[C@@H](C)C1` [Example 68, (S)-4-(4-acryloyl-2-methylpiperazin-1-yl)-6-fluoro-1-(2-isopropyl-6-(methylsulfonyl)phenyl)-7-(1-methyl-1H-pyrazol-5-yl) pyridino [2,3-d] pyrimidin-2(1H)-one], for which the IC50 came to 2200 nM.
